These results are taken from patent US4185032A, “Ureylene phenylene anionic naphthalenesulfonic acids” (American Cyanamid Company, priority 1978, dated 1980).

Experiment [1] deals with shunt pathway. As to the kind of experiment: Test Code 036 (C-Shunt inhibitor), lysis of human erythrocytes via the shunt pathway activated by cobra venom factor. The format is cell-based. The source says:
(§1) An active inhibitor protects C2 from C1 and C4; (ii) Test Code 035 (C3-C9 inhibitor)--This test determines the ability of the late components of human complement (C3-C9) to lyse EAC 142 in the presence of appropriate dilutions of the test compound. An active inhibitor protects EAC 142 from lysis by human C3-C9; (iii) Test Code 036 (C-Shunt inhibitor)--In this test human erythrocytes rendered fragile are lysed in autologous serum via the shunt pathway activated by cobra venom factor in the presence of appropriate dilutions of the test compound. Inhibition of the shunt pathway results in failure of lysis; (iv) Forssman Vasculitis Test--Here, the well known complement dependent lesion, Forssman vasculitis, is produced in guinea pigs by intradermal injection of rabbit anti-Forssman antiserum. The lesion is measured in terms of diameter, edema and hemorrhage and the extent to which a combined index of these is inhibited by prior intraperitoneal injection of the test compound at 200 mg/kg is then reported, unless otherwise stated; (v) Forssman Shock Test--Lethal shock is produced in guinea pigs by an i.v. injection of anti-Forssman antiserum and the harmonic mean death time of treated guinea pigs is compared with that of simultaneous controls; (vi) Complement Level Reduction Test--In this test, the above dosed guinea pigs, or others, are bled for serum and the complement level is determined in undiluted serum by the capillary tube method of U.S. Pat. No. 3,876,376 and compared to undosed control guinea pigs; and (viii) Cap 50 Test--Here, appropriate amounts of the test compound are added to a pool of guinea pig serum in vitro, after which the undiluted serum capillary tube assay referred to about is run. The concentration of compound inhibiting 50% is reported.

The test system of experiment [2] is late components of human complement (C3-C9). As to the kind of experiment: Test Code 035 (C3-C9 inhibitor), lysis of EAC 142. Format: cell-based.
Excerpt: as §1

Experiment [3] concerns the target T1, activated human C1 (Homo sapiens, UniProt P09871).
T1 construct: fluid-phase human C2 as substrate in presence of C4
As to the kind of experiment: Test Code 026 (C1 inhibitor). The format is biochemical. The settings on record: well number in twofold serial dilution assay, higher = more active.
Excerpt: as §1

For experiment [4], the system named is complement system. The settings on record: literature, in words; cited from earlier work.
The test system of experiment [5] is whole complement. As to the kind of experiment: Complement Level Reduction Test (in vivo, guinea pig; serum whole complement by capillary tube assay).
Excerpt: as §1
With reference to Table I. guinea pigs weighing about 300 g were dosed intravenously (i.v.) or intraperitoneally (i.p.) with 200 mg/kg of the test compound dissolved in saline and adjusted to pH 7-8. […] The serum was tested for whole complement using the capillary tube assay. Percent inhibition was calculated by comparison with simultaneous controls. The results appear in Table I together with results of tests code 026, 035, 036, Cap 50, % inhibition and Forssman shock.

For experiment [6], the system named is human serum complement. The settings on record: in vitro and in vivo; reduction in total hemolytic complement activity; cited from earlier work.
For experiment [7], the system named is hereditary angioneurotic edema. The settings on record: literature, in words; cited from earlier work.
Setting [8] is: Table I, well number in twofold serial dilution assay, higher = more active.
Where [9] appears, read: Table II (Intermediates), twofold serial dilution assay.

Structures can show the parent of a compound that is named as a salt.

T1 sequence (P09871 16-688): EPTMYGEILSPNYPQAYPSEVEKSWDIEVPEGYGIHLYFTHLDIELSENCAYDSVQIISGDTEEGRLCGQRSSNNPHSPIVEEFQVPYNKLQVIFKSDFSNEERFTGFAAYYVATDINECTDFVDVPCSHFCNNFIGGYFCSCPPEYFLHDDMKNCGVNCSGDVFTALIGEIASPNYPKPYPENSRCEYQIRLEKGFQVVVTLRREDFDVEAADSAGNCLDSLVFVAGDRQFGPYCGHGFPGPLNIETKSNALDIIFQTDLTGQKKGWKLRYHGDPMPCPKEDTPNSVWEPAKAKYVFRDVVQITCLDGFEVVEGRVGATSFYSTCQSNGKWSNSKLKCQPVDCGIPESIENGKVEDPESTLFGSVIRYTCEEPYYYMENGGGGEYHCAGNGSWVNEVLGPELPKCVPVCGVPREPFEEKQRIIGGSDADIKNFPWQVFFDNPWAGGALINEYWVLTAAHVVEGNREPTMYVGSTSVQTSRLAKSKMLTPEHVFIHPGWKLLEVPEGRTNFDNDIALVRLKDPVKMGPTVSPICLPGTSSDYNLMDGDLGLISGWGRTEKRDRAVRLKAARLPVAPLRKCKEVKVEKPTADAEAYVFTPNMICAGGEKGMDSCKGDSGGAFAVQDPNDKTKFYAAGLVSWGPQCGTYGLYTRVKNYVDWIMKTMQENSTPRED
T1 sequence (P00736 18-705 partner): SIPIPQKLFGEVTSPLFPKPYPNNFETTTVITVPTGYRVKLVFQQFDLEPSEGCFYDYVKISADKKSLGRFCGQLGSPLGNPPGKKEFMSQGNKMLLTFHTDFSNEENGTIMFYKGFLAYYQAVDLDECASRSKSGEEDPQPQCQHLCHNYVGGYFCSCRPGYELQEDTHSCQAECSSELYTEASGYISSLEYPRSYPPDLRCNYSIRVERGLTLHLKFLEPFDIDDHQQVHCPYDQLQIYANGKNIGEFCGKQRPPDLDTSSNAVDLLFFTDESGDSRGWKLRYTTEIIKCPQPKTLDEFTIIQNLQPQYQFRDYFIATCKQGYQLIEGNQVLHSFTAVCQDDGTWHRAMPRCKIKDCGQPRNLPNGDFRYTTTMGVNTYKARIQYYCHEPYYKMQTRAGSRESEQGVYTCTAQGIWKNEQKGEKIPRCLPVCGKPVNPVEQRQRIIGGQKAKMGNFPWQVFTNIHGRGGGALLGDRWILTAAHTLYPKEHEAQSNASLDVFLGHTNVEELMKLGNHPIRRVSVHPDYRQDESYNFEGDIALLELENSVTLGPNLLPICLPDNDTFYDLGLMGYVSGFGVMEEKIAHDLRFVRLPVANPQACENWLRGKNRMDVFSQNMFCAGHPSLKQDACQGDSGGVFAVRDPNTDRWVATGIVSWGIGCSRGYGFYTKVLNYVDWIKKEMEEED
T1 sequence (P02745 23-245 partner): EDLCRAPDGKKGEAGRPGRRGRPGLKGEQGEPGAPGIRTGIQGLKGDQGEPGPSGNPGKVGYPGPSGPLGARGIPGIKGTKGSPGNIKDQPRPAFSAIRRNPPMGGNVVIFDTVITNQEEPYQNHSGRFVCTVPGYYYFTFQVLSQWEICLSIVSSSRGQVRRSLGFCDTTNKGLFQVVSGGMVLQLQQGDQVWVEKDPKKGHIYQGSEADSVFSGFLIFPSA
T1 sequence (P02746 28-253 partner): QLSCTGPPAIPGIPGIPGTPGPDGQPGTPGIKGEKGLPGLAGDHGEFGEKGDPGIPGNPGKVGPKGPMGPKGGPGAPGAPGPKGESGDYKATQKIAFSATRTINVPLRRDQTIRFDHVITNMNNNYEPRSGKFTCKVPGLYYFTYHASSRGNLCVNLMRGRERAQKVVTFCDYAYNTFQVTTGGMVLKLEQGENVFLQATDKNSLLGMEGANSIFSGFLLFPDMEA
T1 sequence (P02747 29-245 partner): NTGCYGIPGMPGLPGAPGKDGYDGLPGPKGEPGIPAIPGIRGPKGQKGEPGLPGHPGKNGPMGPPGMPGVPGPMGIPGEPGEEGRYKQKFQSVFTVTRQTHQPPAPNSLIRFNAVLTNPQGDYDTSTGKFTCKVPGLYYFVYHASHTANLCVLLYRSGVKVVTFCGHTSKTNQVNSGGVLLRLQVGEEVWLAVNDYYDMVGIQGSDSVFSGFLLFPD

Consider `O=C(Nc1ccc(C(=O)Nc2cc(C(=O)O)cc(C(=O)Nc3ccc(S(=O)(=O)O)c4cc(S(=O)(=O)O)cc(S(=O)(=O)O)c34)c2)c(S(=O)(=O)O)c1)Nc1ccc(C(=O)Nc2cc(C(=O)O)cc(C(=O)Nc3ccc(S(=O)(=O)O)c4cc(S(=O)(=O)O)cc(S(=O)(=O)O)c34)c2)c(S(=O)(=O)O)c1` [5,5'-[Ureylenebis[(2-sulfo-4,1-phenylenecarbonyl)-imino]]bis[N-4,6,8-trisulfo-1-naphthylisophthalamic acid], octasodium salt], for which the “Shunt Inhibition 036 Wells” value in experiment [1] (setting [8]) is “+5 wells”. Further, the “C-Late 035 Wells” value in experiment [2] (setting [8]) is reported as “+2 wells”. Further, the “Cl 026 Wells” value in experiment [3] (Table I) was “+6 wells”.

For the compound heparin, the “anticomplementary effect / complement inhibition” value in experiment [4] is on record as “anticomplementary effect”.

For the compound `O=C(Nc1cc(C(=O)O)cc(C(=O)Nc2cc(C(=O)O)cc(C(=O)Nc3ccc(S(=O)(=O)O)c4cc(S(=O)(=O)O)cc(S(=O)(=O)O)c34)c2)c1)Nc1cc(C(=O)O)cc(C(=O)Nc2cc(C(=O)O)cc(C(=O)Nc3ccc(S(=O)(=O)O)c4cc(S(=O)(=O)O)cc(S(=O)(=O)O)c34)c2)c1` [5,5'-Ureylenebis[N-[3-carboxy-5-(4,6,8-trisulfo-1-naphthylca] [5,5'-Ureylenebis[N-[3-carboxy-5-(4,6,8-trisulfo-1-naphthaylcarbamoyl)phenyl]isophthalamic acid], decasodium salt], in experiment [2] (setting [8]), the “C-Late 035 Wells” value was “+2 wells”. Also, in experiment [5] (Table I, i.p. 200 mg/kg), the “% Inhibition, Intraperitoneal, 30 minutes” value is -86%; the “% Inhibition, Intraperitoneal, 60 minutes” value (shortened to “% Inhibition … 60 minutes”) is -89%; the “% Inhibition, Intraperitoneal, 120 minutes” value is recorded as -96%.

Consider `Nc1ccc(C(=O)Nc2ccc(C(=O)Nc3cc(S(=O)(=O)[O-])cc4cc(S(=O)(=O)[O-])cc(S(=O)(=O)[O-])c34)c(S(=O)(=O)[O-])c2)c(S(=O)(=O)[O-])c1.[Na+].[Na+].[Na+].[Na+].[Na+]` [8-[4-(4-Amino-2-sulfobenzamido)-2-sulfobenzamido]-1,3,6-naphthalenetrisulfonic acid pentasodium salt], for which the “Shunt Inhibition 036 Wells” value in experiment [1] (setting [9]) is “N”. For the same compound, in experiment [2] (setting [9]), the “C-Late 035 Wells” value is on record as “N”. The “Cl 026 Wells” value in experiment [3] (Table II (Intermediates)) was “+5 wells”. In experiment [5] (Table II (Intermediates), i.v.), the “% Inhibition, Intravenous, 2 minutes” value was -77%; the “% Inhibition, Intravenous, 30 minutes” value was -43%; the “% Inhibition, Intravenous, 120 minutes” value is given as -31%.

pentosan-polysulfoester: the “anticomplementary activity on human serum” value in experiment [6] was “anticomplementary activity on human serum, both in vitro and in vivo”.

As for `NCCCCCC(=O)O` [epsilon-aminocaproic acid], in experiment [7], the “success in the treatment of hereditary angioneurotic edema” value was “used with success in the treatment of hereditary angioneurotic edema”.

For `Nc1cc(C(=O)O)cc(C(=O)Nc2cc(C(=O)O)cc(C(=O)Nc3ccc(S(=O)(=O)[O-])c4cc(S(=O)(=O)[O-])cc(S(=O)(=O)[O-])c34)c2)c1.[Na+].[Na+].[Na+]` [5-Amino-3'-carboxy-5'-(4,6,8-trisulfo-1-naphthylcarbamoyl)isophthalanilic acid, trisodium salt], in experiment [1] (setting [9]), the “Shunt Inhibition 036 Wells” value was “N”. The “C-Late 035 Wells” value in experiment [2] (setting [9]) is “N”. In addition, the “Cl 026 Wells” value in experiment [3] (Table II (Intermediates)) is given as “+3 wells”.

For `Nc1ccc(C(=O)Nc2cc(C(=O)O)cc(C(=O)Nc3ccc(S(=O)(=O)[O-])c4cc(S(=O)(=O)[O-])cc(S(=O)(=O)[O-])c34)c2)c(S(=O)(=O)[O-])c1.[Na+].[Na+].[Na+].[Na+]` [5-(4-Amino-2-sulfobenzamido)-N-(4,6,8-trisulfo-1-naphthyl)isophthalamic acid, tetrasodium salt], the “Shunt Inhibition 036 Wells” value in experiment [1] (setting [9]) is listed as “N”. In addition, the “C-Late 035 Wells” value in experiment [2] (setting [9]) was “N”. Further, the “Cl 026 Wells” value in experiment [3] (Table II (Intermediates)) was “+3 wells”.

For the compound `Nc1ccc(C(=O)Nc2ccc(C(=O)Nc3ccc(S(=O)(=O)[O-])c4cc(S(=O)(=O)[O-])cc(S(=O)(=O)[O-])c34)c(S(=O)(=O)[O-])c2)c(S(=O)(=O)[O-])c1.[Na+].[Na+].[Na+].[Na+].[Na+]` [8-[4-(4-Amino-2-sulfobenzamido)-2-sulfobenzamido]-1,3,5-naphthalenetrisulfonic acid, pentasodium salt], the “Shunt Inhibition 036 Wells” value in experiment [1] (setting [9]) is on record as “N”. Also, in experiment [2] (setting [9]), the “C-Late 035 Wells” value is recorded as “N”. In experiment [3] (Table II (Intermediates)), the “Cl 026 Wells” value was “+4 wells”. For the same compound, in experiment [5] (Table II (Intermediates), i.p.), the “% Inhibition, Intraperitoneal, 30 minutes” value is -15%; the “% Inhibition … 60 minutes” value was -17%; the “% Inhibition, Intraperitoneal, 120 minutes” value is listed as -23%. Also, in experiment [5] (Table II (Intermediates), i.v.), the “% Inhibition, Intravenous, 2 minutes” value is -52%; the “% Inhibition, Intravenous, 30 minutes” value is reported as -28%; the “% Inhibition, Intravenous, 120 minutes” value is listed as -10%.

Regarding `Cc1ccc(C(=O)Nc2ccc(S(=O)(=O)O)c3cc(S(=O)(=O)O)cc(S(=O)(=O)O)c23)cc1NC(=O)c1cccc(NC(=O)Nc2cccc(C(=O)Nc3cc(C(=O)Nc4ccc(S(=O)(=O)O)c5cc(S(=O)(=O)O)cc(S(=O)(=O)O)c45)ccc3C)c2)c1` [Suramin, reference compound], the “anticomplementary effect / complement inhibition” value in experiment [4] is “moderately active as a complement inhibitor”. In addition, the “Cl 026 Wells” value in experiment [3] (Table I) was “+4 wells”. In experiment [5] (Table I, i.p. 200 mg/kg), the “% Inhibition, Intraperitoneal, 30 minutes” value was -9%; the “% Inhibition … 60 minutes” value is recorded as -17%; the “% Inhibition, Intraperitoneal, 120 minutes” value is listed as -44%.

Consider `NC[C@H]1CC[C@H](C(=O)O)CC1` [tranexamic acid], for which, in experiment [7], the “success in the treatment of hereditary angioneurotic edema” value is listed as “used with success in the treatment of hereditary angioneurotic edema”.

On to `Nc1ccc2cc(S(=O)(=O)O)cc(O)c2c1N=Nc1ccc(NC(=O)Nc2ccc(N=Nc3c(N)ccc4cc(S(=O)(=O)O)cc(O)c34)c(S(=O)(=O)O)c2)cc1S(=O)(=O)O` [chloroazol fast pink, 3,3'-ureylenebis[6-(2-amino-8-hydroxy-6-sulfo-1-naphthylazo)benezenesulfonic acid], tetrasodium salt], for which the “anticomplementary effect / complement inhibition” value in experiment [4] was “anticomplementary effect”.

As for `O=C(Nc1ccc(C(=O)Nc2ccc(C(=O)Nc3cc(S(=O)(=O)O)cc4cc(S(=O)(=O)O)cc(S(=O)(=O)O)c34)c(S(=O)(=O)O)c2)c(S(=O)(=O)O)c1)Nc1ccc(C(=O)Nc2ccc(C(=O)Nc3cc(S(=O)(=O)O)cc4cc(S(=O)(=O)O)cc(S(=O)(=O)O)c34)c(S(=O)(=O)O)c2)c(S(=O)(=O)O)c1` [8,8'-[Ureylenebis[(2-sulfo-4,1-phenylenecarbonyl)-imino](2-sulfo-4,1-phenylenecarbonyl)imino]di-1,3,6-naphthalenetrisulfonic acid, decasodium salt], the “C-Late 035 Wells” value in experiment [2] (setting [8]) was “+1 wells”. Also, the “Cl 026 Wells” value in experiment [3] (Table I) is recorded as “+8 wells”. Moreover, in experiment [5] (Table I, i.p. 200 mg/kg), the “% Inhibition, Intraperitoneal, 30 minutes” value is given as -68%; the “% Inhibition … 60 minutes” value is -24%; the “% Inhibition, Intraperitoneal, 120 minutes” value is reported as -14%.

For the compound `O=C(Nc1ccc(C(=O)Nc2ccc(C(=O)Nc3ccc(S(=O)(=O)[O-])c4cc(S(=O)(=O)[O-])cc(S(=O)(=O)[O-])c34)c(S(=O)(=O)[O-])c2)c(S(=O)(=O)[O-])c1)Nc1ccc(C(=O)Nc2ccc(C(=O)Nc3ccc(S(=O)(=O)[O-])c4cc(S(=O)(=O)[O-])cc(S(=O)(=O)[O-])c34)c(S(=O)(=O)[O-])c2)c(S(=O)(=O)[O-])c1.[Na+].[Na+].[Na+].[Na+].[Na+].[Na+].[Na+].[Na+].[Na+].[Na+]` [8,8'-[Ureylenebis[(2-sulfo-4,1-phenylenecarbonyl)imino(2-sulfo-4,1-phenylenecarbonyl)imino]]di-1,3,5-naphthalenetrisulfonic acid, decasodium salt], in experiment [1] (setting [8]), the “Shunt Inhibition 036 Wells” value is “+4 wells”. In experiment [2] (setting [8]), the “C-Late 035 Wells” value is on record as “+1 wells”. The “Cl 026 Wells” value in experiment [3] (Table I) was “+7 wells”. For the same compound, in experiment [5] (Table I, i.p. 200 mg/kg), the “% Inhibition, Intraperitoneal, 30 minutes” value was -31%; the “% Inhibition … 60 minutes” value is -36%; the “% Inhibition, Intraperitoneal, 120 minutes” value is on record as -58%. In addition, in experiment [5] (Table I, i.v. 200 mg/kg), the “% Inhibition, Intravenous, 2 minutes” value is -38%; the “% Inhibition, Intravenous, 30 minutes” value is listed as -47%; the “% Inhibition, Intravenous, 120 minutes” value is on record as -22%.
